Test results as given in publication PMC13172357 (Nature Communications, 2026).

Legend:
[1] = biological target: T1, human USP7 full length protein (Homo sapiens, UniProt Q93009); assay: USP7 inhibition assay (Ubiquitin-Rhodamine110Gly cleavage); format: biochemical; conditions: Ub-RhoG cleavage, read-out: IC50 (half-maximal inhibition)
T1 construct: human USP7 full length protein
Protocol: USP7 inhibitors in DMSO were diluted in UbR buffer (40 mM Tris-HCl pH 8, 150 mM NaCl, 1 mM TCEP, 0.1 mg/mL BSA, 0.01% Tween20) to a concentration of 80 μM (4x). This stock was then further diluted in an 11-times serial dilution in UbR buffer containing 4% DMSO (4x). To this was added the same volume of human USP7 full length protein[59] […] The assay was initiated upon addition of 10 μL per well of Ubiquitin-Rhodamine110Gly (Ub-RhoG) (100 nM in UbR buffer, 2x). […] Normalization was carried out using samples featuring either no inhibitor or no enzyme as respective controls. […] Slopes of fluorescence over time curves were determined with Microsoft Excel through linear regression using the first 15 min of each measurement.

[2] = system: proteins enriched from Panc89 lysate; assay: Competitive pulldown with NK264-functionalized beads, mass spectrometry; format: binding, human; conditions: 10 µM competitor
Protocol: The next steps were carried out at room temperature unless noted otherwise. Afterwards, the samples were mixed shortly (1 min, 1000 rpm) and collected by short centrifugation (10 s, 200 ×g). Protein binding was induced by the addition of an equal volume of pure ethanol (10 min, 1000 rpm), the beads were collected by a brief centrifugation step (10 s, 200 ×g) and the plate was placed on a magnetic stand. Beads were allowed to bind for at least 5 min before the supernatant was removed. The beads were then taken up in 180 µL 80% ethanol and transferred to a fresh multiwell plate.
Samples were incubated at 37 °C for 19 h while shaking (1300 rpm). On the next day, the samples were briefly centrifuged (10 s, 200 ×g) and placed on a magnet for 5 min. The clear solution containing the tryptic peptides was transferred to a fresh multiwell plate. The beads were taken up in 47 µL 25 mM ammonium bicarbonate and incubated while shaking (10 min, 1000 rpm).

HiBiT-USP7 = HiBiT-USP7 (Homo sapiens, UniProt Q93009); assay: HiBiT USP7 degradation assay, MV4-11 cells; format: cell-based; conditions: MV4-11 HiBiT-USP7, 6 h and 24 h
Chain of HiBiT-USP7 (Q93009 whole entry, the tested form may be a part): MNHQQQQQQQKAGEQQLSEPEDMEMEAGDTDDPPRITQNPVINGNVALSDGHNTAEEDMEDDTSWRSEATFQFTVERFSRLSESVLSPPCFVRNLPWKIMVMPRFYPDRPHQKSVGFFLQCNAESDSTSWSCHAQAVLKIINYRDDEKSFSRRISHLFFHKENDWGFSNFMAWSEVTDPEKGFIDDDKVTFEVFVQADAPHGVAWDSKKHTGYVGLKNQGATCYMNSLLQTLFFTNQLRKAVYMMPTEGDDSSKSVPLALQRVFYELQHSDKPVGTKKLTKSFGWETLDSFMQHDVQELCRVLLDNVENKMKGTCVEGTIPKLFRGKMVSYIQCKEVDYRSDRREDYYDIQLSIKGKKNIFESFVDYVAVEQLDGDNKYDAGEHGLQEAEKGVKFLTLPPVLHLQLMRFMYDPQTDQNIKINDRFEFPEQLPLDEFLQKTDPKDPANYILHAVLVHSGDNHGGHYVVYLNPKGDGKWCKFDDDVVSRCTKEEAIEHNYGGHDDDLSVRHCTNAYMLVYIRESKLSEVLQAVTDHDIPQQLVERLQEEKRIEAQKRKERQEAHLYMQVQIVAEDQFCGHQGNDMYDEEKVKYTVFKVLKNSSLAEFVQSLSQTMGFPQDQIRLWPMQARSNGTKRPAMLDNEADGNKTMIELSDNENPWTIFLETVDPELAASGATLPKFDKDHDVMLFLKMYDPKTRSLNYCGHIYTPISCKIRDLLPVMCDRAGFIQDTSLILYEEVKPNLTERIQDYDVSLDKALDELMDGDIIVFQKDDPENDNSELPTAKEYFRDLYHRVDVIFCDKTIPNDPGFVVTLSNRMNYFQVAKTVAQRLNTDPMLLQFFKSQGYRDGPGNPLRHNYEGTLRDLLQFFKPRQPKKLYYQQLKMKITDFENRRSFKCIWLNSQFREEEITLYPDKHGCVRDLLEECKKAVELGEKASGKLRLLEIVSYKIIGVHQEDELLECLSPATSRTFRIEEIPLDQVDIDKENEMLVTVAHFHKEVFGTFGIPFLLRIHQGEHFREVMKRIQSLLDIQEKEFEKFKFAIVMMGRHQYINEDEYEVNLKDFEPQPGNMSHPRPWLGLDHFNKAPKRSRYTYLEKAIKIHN
Protocol: HiBiT-USP7 construct was cloned by extraction of USP7 fragment from plasmid pQHA-USP7 WT puroR (Addgene #46753) using appropriate restriction sites. The USP7 fragment was then ligated into the pRRL-PGK-HiBiT entry vector to generate the plasmid.
Lentiviral infection was used to generate stable a MV4-11 HiBiT cell line. Lentivirus was produced using plasmids psPAX2, pMD2.G, and HiBiT-USP7 plasmid in HEK293 cells. MV4-11 cells were infected with filtered virus supernatant and selected after 48 h of infection for the generation of the stable MV4-11^HiBiT-USP7 cell line.
The assay was performed as described previously. Briefly, MV4-11^HiBiT-USP7 cells were seeded and treated with compounds for the indicated time. Nano-Glo HiBiT Lytic Detection System (Promega) was used for the assay and luminescence was measured on a Tecan Spark microplate reader (Tecan). DC50 values were calculated using the sigmoidal dose-response (four parameters) equation in GraphPad Prism and are given as the concentration where 50% of the total signal was remaining. Dmax values are given as the maximum degradation observed at any concentration.

Panc89 cells [3] = assay: Total proteome analysis, DDA mass spectrometry, Panc89 cells; format: cell-based, H. sapiens; conditions: DDA Panc89, 5 µM, 6, 24 or 72 h
Protocol: Following treatment, cells were harvested, washed twice with PBS, and pellets were flash frozen in liquid nitrogen before being stored at −80 °C. Samples were prepared using the single-pot, solid-phase-enhanced sample-preparation (SP3) strategy. All buffers and solutions were prepared with mass spectrometry (MS)-grade water (Honeywell). Cell pellets were taken up in 100 µL 1x sample buffer (50 mM Hepes pH 8.0, 1% (wt/v) SDS, 1% (v/v) NP-40, 10 mM TCEP, 40 mM chloroacetamide) and samples were heated at 90 °C for 5 min prior to sonication with a Bioruptor UCD-300 (Diagenode) for ten cycles of 1 min pulse and 30 s pause at high power. The samples were then supplemented with Benzonase (20 U/sample) and sonified for 5 min in a water bath (Bandelin) followed by 30 min incubation at […].
The protein extracts were then centrifuged (20000 ×g, RT, 40 min) and the protein concentration of the cleared lysates was determined using the Pierce 660 nm Protein Assay Reagent (#22660; Thermo Scientific) with the Ionic Detergent Compatibility Reagent (#22663; Thermo Scientific) according to the manufacturers’ instructions. Next, 15 µg of total protein per sample in a volume of 100 µL sample buffer was transferred to a 500 µL 96-well plate and treated with 7 U of benzonase (#71206; Merck Millipore) in dilution buffer (20 mM Hepes pH 8.0, 2 mM MgCl2) at 37 °C for 30 min with agitation at 1500 rpm. After Benzonase treatment samples were heated to 90 °C for 5 min and after cooling down to room temperature, iodoacetamide to a final concentration of 10 mM was added for complete alkylation of cysteines (37 °C, 15 min, 1000 rpm, in the dark).
Then, 3 µL of a 50 µg/µL 1:1 mixture of hydrophilic (#45152105050250) and hydrophobic (#65152105050250) carboxylate modified Sera-Mag SpeedBeads (Cytiva), that were washed twice with MS-grade water, were added to the samples. The next steps were carried out at room temperature unless noted otherwise. Afterwards, the samples were mixed shortly (1 min, 1000 rpm) and collected by short centrifugation (10 s, 200 ×g). […]

Panc89 cells [4] = assay: Confluence measurement (cell growth), Panc89; format: cell-based, human; conditions: Panc89, 1-10 µM, 72 h, 25 mM or 5 mM D-glucose
[5] = system: Ma-Mel-47 USP7 K.O. cells; assay: Medium color switch (images), Ma-Mel-47 USP7 K.O. cells; format: cell-based, human; conditions: Ma-Mel-47 USP7-KO, 72 h, 5 µM NK192, 10 µM FT671, 1 µM NK266

T1 sequence (Q93009 whole entry): as the sequence (Q93009 whole entry, the tested form may be a part) above

C[C@H](CC(=O)N1CCC(O)(Cn2cnc3c(cnn3-c3ccc(F)cc3)c2=O)CC1)c1ccccc1 [NK192]
IC50 [1]: 20 nM | Proteome-wide target specificity (in words) [2]: very high specificity for USP7 | HiBiT-USP7 levels (in words) (HiBiT-USP7): partial reduction of USP7 levels | USP7 protein level changes (in words) (Panc89 cells [3]): did not lead to USP7 protein level changes beyond the significance threshold | Cell growth (in words) (Panc89 cells [4]): not affected | Change of media color (in words) [5]: the same change of media color
